Common to all, as to format: cell-based, human
Assay [1] relates to leukocytes of the patient. The assay can be described thus: LMT (leukocyte migration test). The settings on record: positive with MI value > 150 and p < 0.05. The method, then:
(§1) The patient having the typical allergy-like symptom (skin lesion) and the atypical patient were tested by the three different methods, namely the DLST, which is widely used for clinical tests, the LMT, which is sometimes reported more accurate than the DLST, and the present method, and then the results were compared. […] The typical case was determined as negative though the patient clearly developed the skin symptom of the toxic epidermal necrolysis (TEN) according to the clinical presentation and the clinical course.

Assay [2] relates to lymphocytes of the patient. In words: DLST (drug-induced lymphocyte stimulation test). The method, then: as §1
For assay [3], the system named is Peripheral blood Mononuclear cells (PBMC) of patient #3; leukocytes of a healthy volunteer as chemotactic cells. In words: Migration of healthy-volunteer leukocytes toward reactive solution of patient #3 mononuclear cells stimulated with suspected drug (Example 3). Particulars: for Velocity (judgment of migration velocity, % of control) / Distance (judgment of migration distance, % of control): patient #3 PBMC + serum, 72 h, suspected drugs at ½ of Cmax, PHA 1 μg/ml, relative to PHA-stimulated reactive solution; for chemotaxis or migration ability of the chemotactic cells (FIG. 5A): images recorded for 20 minutes. The method, then:
Leukocytes including granulocytes such as neutrophils were separated from heparinized blood of a healthy volunteer who had no allergic symptom by the density gradient centrifugation (Lymphocyte (Registered Trademark)—poly: CEDARLANE Labs. Ltd., Ontario, Canada) in accordance with a conventional method, and suspended in 5 ml of a culture medium (RPMI 1640: Sigma-Aldrich, MO, USA). After culturing the cells in a CO2 incubator at 37° C. for 1 hour the cells was adjusted to the concentration of about 5×10^5 cells/ml and used as chemotactic cells.
The chemotactic cells were injected into the lower well in the holder of EZ-TAXIScan™ (GE Healthcare, Tokyo) at about 5 μl/well, and were drawn to the end of the observation terrace by suction. Subsequently, the serum was injected into the upper well at 1.5 μl/well with a microsyringe to create a concentration gradient on the observation terrace, and images of the chemotactic cells on the observation terrace were sequentially recorded. The depth of the terrace was 4 μm.
The kinetics of the chemotactic cells migrating on the observation terrace was analyzed with software for processing images, ImageJ (NIH, MD, USA). Various parameters concerned with chemotaxis or migration ability of the cell toward the serum such as velocity, distance and direction of the migration were calculated. The statistical analysis was performed using GraphPad Prism (Registered Trademark) (GraphPad Software, CA, USA).
A drug solution was prepared by dissolving a drug in a Hank's balanced salt solution (HBSS: Sigma-Aldrich) if the drug was a solid preparation such as a soluble tablet or a powder. If the drug was poorly soluble, it was dissolved in Dimethyl-sulfoxide (DMSO: Sigma-Aldrich) and the solution was diluted with HBSS so that the final concentration of DMSO was 1% or less. A solution containing the drug solution and the serum of the patient in a ratio of 1:1 was used as a solution of the antigenic drug. The concentrations of the suspected drugs were set to ½ of the Cmax in principle. The concentration of phytohemagglutinin (PHA: Wako Pure Chemical Industries, Ltd., Osaka), a control antigen for stimulating or activating the lymphocytes, was set to 1 μg/ml.
Peripheral blood Mononuclear cells (PBMC) were separated from heparinized blood of the patient by density gradient centrifugation (Lymphoprep™: Axis-Shield PoC, Oslo, Norway) in a conventional manner, washed with HBSS, and then adjusted to the concentration of about 5×10^6 cells/ml with a culture medium for reaction (RPMI 1640 containing 10% horse serum (Invitrogen, CA, USA)).
A mixture of the suspension of the mononuclear cells and the solution of the antigenic drug in a ratio of 4:1 was reacted in a CO2 incubator at 37° C. for 72 hours, and the supernatant was used as a reactive solution stimulated with the antigen. PHA (a), gasmotin (b), dogmatyl (c), pariet (d) and DMSO (e) were used as the antigen.
The cell kinetics was measured in the substantially same manner as in Example 1 excepting that the reactive solution stimulated with the antigen was injected into the upper well in place of the serum.

[4] abbreviates: patient #3, vs other suspected drugs and solvent (c, d and e), p<0.05.

With `CCC(C)n1ncn(-c2ccc(N3CCN(c4ccc(OCC5COC(Cn6cncn6)(c6ccc(Cl)cc6Cl)O5)cc4)CC3)cc2)c1=O` (stereo not shown) [Itraconazole], the “LMT (MI value)” value in assay [1] (Patient B, test 2) came to 135.5. Besides, the “DLST (SI value)” value in assay [2] (Patient B, test 1, positive with SI value > 180) worked out at 151; in assay [2] (Patient B, test 2, positive with SI value > 180), 90.

As for `CO/N=C(\C(=O)N[C@@H]1C(=O)N2C(C(=O)O)=C(C[N+]3(C)CCCC3)CS[C@H]12)c1csc(N)n1` [Maxipime], in assay [1] (Patient A), the “LMT (MI value)” value was found to be 88.21. Also, the “DLST (SI value)” value in assay [2] (Patient A, positive with SI value > 180) worked out at 112.

`CCN1CCCC1CNC(=O)c1cc(S(N)(=O)=O)ccc1OC` (stereo not shown) [dogmatyl, Sulpride]: the “Velocity (judgment of migration velocity, % of control)” value in assay [3] was “+/− (80~90)”.

Regarding `COCCCOc1ccnc(C[S+]([O-])c2nc3ccccc3[nH]2)c1C` (stereo not shown) [pariet, Rabeprazole sodium], the “Velocity (judgment of migration velocity, % of control)” value in assay [3] is “+ (90~120)”.

Consider Mosapride citrate hydrate [gasmotin], for which the “chemotaxis or migration ability of the chemotactic cells (FIG. 5A)” value in assay [3] (patient #3) is “rapid migration of the chemotactic cells in the positive direction of the density gradient”. Further, in assay [3] (setting [4]), the “migration distance (FIG. 5C)” value is “significantly larger” and the “migration velocity (FIG. 5B)” value is reported as “significantly larger”. In addition, in assay [3], the “Distance (judgment of migration distance, % of control)” value was “++ (>120)” and the “Velocity (judgment of migration velocity, % of control)” value is reported as “++ (>120)”.

Take phytohemagglutinin [PHA]: in assay [3] (patient #3), the “chemotaxis or migration ability of the chemotactic cells (FIG. 5A)” value is “weaker than that induced with (b) but stronger than those induced with the other suspected drugs”. Besides, the “Distance (judgment of migration distance, % of control)” value in assay [3] is on record as “+ (90~120)”. Moreover, the “Velocity (judgment of migration velocity, % of control)” value in assay [3] is on record as “+ (90~120)”. Further, the entries for the “LMT (MI value)” value in assay [1] (Patient A) and in assay [1] (Patient B) were 154.87 and 283.9, respectively. For the same compound, the “DLST (SI value)” value in assay [2] (Patient A, class symbol) is “+ (Positive with *SI value > 180 (DLST))”; in assay [2] (Patient B, class symbol), “+ (Positive with *SI value > 180 (DLST))”.

The record behind these values is patent publication US10324079B2, “Method for rapid testing allergy” (priority 2013, dated 2019).
